The source of these data is publication PMC6934975, “Natural Alpha-Glucosidase Inhibitors Rapid Fishing from Cyperus Rotundus Using Immobilized Enzyme Affinity Screening Combined with UHPLC-QTOF MS” (Iranian Journal of Pharmaceutical Research : IJPR, 2019).

Assay [1] concerns the target T1, α-Glucosidase (E.C. 3.2.1.20) from Saccharomyces cerevisiae (Saccharomyces cerevisiae, UniProt P53341).
T1 construct: purchased Sigma-Aldrich
Briefly: Kinetic analysis of AGH inhibition (Lineweaver-Burk plot). Format: biochemical. The procedure:
(§1) where AS, ASB, AC and ACB are the absorbance of sample, sample blank, control and control blank, respectively. The measurement was performed in triplicates. For kinetic analysis of AGH inhibition, a certain concentration of 0.6 U/mL AGH and different contents of sample compounds were incubated with a series of concentrations of substrate. The inhibitory kinetics of the investigated compounds was analyzed using the Lineweaver-Burk plot, double-reciprocal plot of the substrate concentration and velocity.

Assay [2] addresses T2, immobilized α-glucosidase (Saccharomyces cerevisiae, UniProt P53341).
T2 construct: purchased Sigma-Aldrich
Briefly: AGH inhibitors screening by immobilized AGH affinity fishing with UHPLC-QTOF-MS. The note with it: C. rotundus extract; parallel control with blank sepharose supports. In kind it is binding. The procedure: a-Glucosidase (0.20 mg) was dissolved in coupling buffer (0.1 M NaHCO3 and 0.5 M NaCl at pH 8.3) at a concentration of 2.0 mg protein/mL. The protein solution was mixed with CNBr-activated Sepharose^TM 4B gel at room temperature in a ratio of […] protein solution to 5 mg Sepharose^TM powder, which would swell to about […] of wet gel. The gel slurry was rotated at room temperature for 1 h to ensure the enzyme bound to the beads. After protein coupling, the resident reactive sites on the gel were blocked by reacting with 0.01 M Tris-HCl buffer at pH 8.0 for 1 h at room temperature. […] Control supports were prepared in the same manner but with no AGH being added during the immobilization step.
200 mg ground C. rotundus powder was extracted in 20 mL of 80% aqueous methanol by ultrasonic extraction for 30 min. The extract was filtered and freeze-dried, then redissolved in 10 mL affinity buffer (67 mM KH2PO4 (containing 5% methanol) at pH 6.8) and filtered through a 0.45 μm membrane as the tested extract sample.
C. rotundus extracts (400 mL) was mixed with […] immobilized AGH gel and gently stirred at 37 °C for 20 min. After incubation with the extracts, the gel were washed with 400 mL affinity buffer (67 mM KH2PO4 (containing 5% methanol) at pH 6.8) four times to remove any unbound components and then treated with […] desorbed solution (50% methanol aqueous solution at pH 3.3) to release the captured potential inhibitors of AGH. The released components were collected and concentrated to 10 mL under N2 atmosphere at 40 °C, then applied to UPLC-QTOF-MS for peak identification. Elution from the control supports was collected and analyzed in the same manner.
UHPLC-MS was performed on an Agilent 1290 Infinity LC-6520 Accurate-Mass QTOF-MS (Agilent Corporation, CA, USA). Analytes eluted from the AGH coupling supports and control supports were separated on a poroshell 120 EC-C18 column (3.0 × 50 mm, 2.7 µm , Agilent Corporation, MA, USA). The solvent system consisted of solvent A […] and solvent B (0.5% formic acid in water, v/v). The solvent A content of the mobile phase was gradient increased from 5% to 100% linearly in 20 min.
The flow rate was set at 0.4 mL/min. Mass analysis was performed in negative ESI ion mode. The operating parameters were as follows: drying gas (N2) flow rate, 8 L/min; drying gas temperature, 325 °C; nebulizer, 30 psig; capillary, 3500 V; skimmer, 65 V; fragmentor voltage, 100 V. The mass range was set at m/z 100–2000. The system was operated under Agilent MassHunter workstation acquisition software, version B.02.01 (Agilent Corporation, MA, USA).
The extract of C. rotundus was used as the real biological sample to carry out the affinity screening procedure, just as shown in Scheme 1. Firstly, α-glucosidase was immobilized on CNBr-activated sepharose beads, while blank supports were set as control. Secondly, immobilized α-glucosidase was incubated with 300 µL of C.
rotundus extracts to launch the affinity capture procedure. The highly-affinity components in C. rotundus could be specifically captured by the enzyme and fished out from the complex matrix. Thirdly, to characterize the captured compounds, the binders were released from immobilized α-glucosidase and subsequently separated and analyzed by UHPLC-QTOF MS. It was worth mentioning that not all the molecules retained on immobilized enzyme were of highly-affinity. Some of them might be non-specifically absorbed on the blank sepharose support. To eliminate this false positive, a parallel control was carried out throughout the whole screening procedure. By subtracting the signal of false positive, the highly-affinity ingredients could be recognized correctly, and these ingredients might be potent natural AGHI in C. rotundus.

For assay [3], the target named is T1, α-Glucosidase (E.C. 3.2.1.20) from Saccharomyces cerevisiae. Briefly: α-Glucosidase inhibitory activity assay in vitro (PNPG substrate, absorbance at 405 nm). In kind it is biochemical.
Source text: Agilent 1290 Infinity LC-6520 Accurate-Mass QTOF-MS (Agilent Technologies, PaloAlto, CA, USA); Bruker DRX-400 (400MHz for ^1H and 100MHz for ^13C) spectrometer (Bruker, Rheinstetten, Germany); α-Glucosidase (E.C. 3.2.1.20) from Saccharomyces cerevisiae, p-nitrophenyl a-D-glucopyranoside (PNPG) and glutathione (GSH) were purchased from Sigma-Aldrich (St Louis, MO, USA). CNBr-activated Sepharose^TM 4B was purchased from Phamacia Biotech AB (Uppsala, Sweden). Distilled water was purified by a Milli-Q water purification apparatus (Millipore, Bedford, MA). All other reagents were of analytical grade.
Each of the dried ground powder (3 g) was extracted in 30 mL of 80% aqueous methanol by ultrasonic extraction for 60 min at room temperature. After centrifugation at 5000 rpm for 5 min, the combined extract was evaporated under reduced pressure to dryness. To each herb extract, DMSO was added to get 5 mg/mL solution, respectively.
The α-glucosidase inhibitory activity was determined spectrophotometrically on 96-well microplate reader. In brief, to a total of 310 μL of reaction mixture containing 265 μL of 67 mM phosphate buffer (pH 6.8), 10 μL of 3 mM glutathione, 25 μL of 10 mM p-nitrophenyl-α-D-glucopyranoside and 10 μL of investigated compounds in the wells was added 10 μL of 0.3 U/mL α-glucosidase and mixed. All the reagents used in this assay were dissolved in the same phosphate buffer (67 mM, pH 6.8). After incubation for 10 min at 37 °C, the reaction was stopped by adding […] of 0.1 M Na2CO3 solution. Then the absorbance of sample (AS) at 405 nm was recorded (SunriseTM microplate absorbance reader, Tecan, Austria). The control was the same mixture except for the investigated sample replaced by the phosphate buffer. The sample blank and control blank were the same mixtures as sample and control, respectively, except α-glucosidase was instead with phosphate buffer, respectively.
The α-glucosidase inhibition activity (%) of test sample could be calculated as
Inhibition activity (%) = […]
as §1

For the next assay, the system named is α-glucosidase. Also noted: method as in PMID 24044731. The following applies: cited from earlier work.

Like-named read-outs stand apart in the source and are kept apart here.

T1 sequence (P53341 whole entry): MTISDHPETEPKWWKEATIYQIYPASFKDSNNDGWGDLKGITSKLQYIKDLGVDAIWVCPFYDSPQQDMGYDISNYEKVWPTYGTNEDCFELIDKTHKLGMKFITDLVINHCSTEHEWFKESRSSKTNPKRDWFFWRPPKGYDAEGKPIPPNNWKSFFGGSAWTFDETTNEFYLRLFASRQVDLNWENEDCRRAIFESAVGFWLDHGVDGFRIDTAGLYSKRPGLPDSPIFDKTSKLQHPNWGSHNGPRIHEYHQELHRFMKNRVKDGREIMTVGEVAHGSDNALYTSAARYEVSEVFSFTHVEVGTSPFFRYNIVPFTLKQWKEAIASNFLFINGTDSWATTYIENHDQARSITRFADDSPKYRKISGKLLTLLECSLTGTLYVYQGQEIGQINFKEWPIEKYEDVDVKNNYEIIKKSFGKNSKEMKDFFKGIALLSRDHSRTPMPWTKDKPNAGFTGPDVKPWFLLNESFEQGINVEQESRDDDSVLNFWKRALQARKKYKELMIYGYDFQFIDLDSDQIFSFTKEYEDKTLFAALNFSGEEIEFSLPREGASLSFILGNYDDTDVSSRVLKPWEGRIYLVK
T2 sequence (P53341 whole entry): as above

Regarding `C[C@H]1O[C@H](O[C@H]2[C@H](O)[C@@H](O)[C@@H](O[C@H]3[C@H](O)[C@@H](O)C(O)O[C@@H]3CO)O[C@@H]2CO)[C@H](O)[C@@H](O)[C@@H]1N[C@H]1C=C(CO)[C@@H](O)[C@H](O)[C@H]1O` (stereo partly drawn) [Acarbose (reference), Acarbose, reference compound], the “alpha-glucosidase inhibitory kinetic mode” value in assay [1] (Lineweaver-Burk plots) is recorded as “competitive”.

Usually Ki stands for a dissociation constant, usually derived from enzyme kinetics or from competition with a known ligand. By IC50 is commonly meant the point on the concentration scale where inhibition reaches its midpoint. On to `Oc1ccc(/C=C/c2c3c(cc4c2[C@@H](c2cc(O)cc(O)c2)[C@H](c2ccc(O)c(O)c2)O4)O[C@H](c2ccc(O)c(O)c2)[C@H]3c2cc(O)cc(O)c2)cc1` [Mesocyperusphenol A (2), mesocyperusphenol A], for which the “Affinity capture result on immobilized α-glucosidase after subtracting the blank support signal” value (“Affinity capture result” for short) in assay [2] is given as “highly-affinity binders”. This molecule also returned an inhibitory constant (Ki) in assay [1] of 10.7 µM. Besides, the “alpha-glucosidase inhibitory kinetic mode” value in assay [1] (Lineweaver-Burk plots) was “Noncompetitive”. Further, in assay [3], the IC50 was 1.44 ± 0.17 µM and the “α-glucosidase inhibitory activity in words” value is listed as “potent natural AGHIs”.

As for `Oc1cc2c3c(c1)C1c4c(cc(O)cc4C4c5c(cc(O)cc5C3C(c3ccc(O)c(O)c3)O2)OC4c2ccc(O)c(O)c2)OC1c1ccc(O)c(O)c1` (stereo not drawn) [Cyperusphenol D (3), Cyperusphenol D], the “Affinity capture result” value in assay [2] was “highly-affinity binders”. In assay [1], this molecule displayed a Ki of 8.63 µM. The “alpha-glucosidase inhibitory kinetic mode” value in assay [1] (Lineweaver-Burk plots) is listed as “Noncompetitive”. In assay [3], 1.18 ± 0.11 µM corresponded to half-maximal inhibition (IC50) and the “α-glucosidase inhibitory activity in words” value is listed as “potent natural AGHIs”.

For the molecule `Oc1ccc(/C=C/c2c3c(cc4c2[C@H](c2cc(O)cc(O)c2)[C@@H](c2ccc(O)c(O)c2)O4)O[C@H](c2ccc(O)c(O)c2)[C@H]3c2cc(O)cc(O)c2)cc1` [Cyperusphenol A (1), (E)-cyperusphenol A], the “Affinity capture result” value in assay [2] was “highly-affinity binders”. In assay [1], this molecule displayed a Ki of 11.2 µM. Besides, in assay [1] (Lineweaver-Burk plots), the “alpha-glucosidase inhibitory kinetic mode” value is on record as “Noncompetitive”. Also, in assay [3], the half-maximal inhibitory concentration (IC50) came to 1.43 ± 0.11 µM and the “α-glucosidase inhibitory activity in words” value is “potent natural AGHIs”.

As to `Oc1cc(O)cc(C2c3c(/C=C/c4ccc(O)c(O)c4)cc(O)cc3OC2c2ccc(O)c(O)c2)c1` (stereo not drawn) [Scirpusins B (4), Scirpusins B], the “α-glucosidase inhibitors in C. rotundus (reported)” value in the assay on α-glucosidase is “natural α-glucosidase inhibitors”. In assay [2], the “Affinity capture result” value was “highly-affinity binders”. In assay [1], the inhibition constant Ki was 95.4 µM. In addition, the “alpha-glucosidase inhibitory kinetic mode” value in assay [1] (Lineweaver-Burk plots) is “Noncompetitive”. In addition, in assay [3], the IC50 is 13.3 ± 1.66 µM.

As for `Oc1ccc(/C=C/c2cc(O)cc3c2C(c2cc(O)cc(O)c2)C(c2ccc(O)c(O)c2)O3)cc1` (stereo not drawn) [Scirpusins A (5), Scirpusins A], the “α-glucosidase inhibitors in C. rotundus (reported)” value with α-glucosidase was “natural α-glucosidase inhibitors”. In assay [2], the “Affinity capture result” value was “highly-affinity binders”. In addition, in assay [1] (Lineweaver-Burk plots), the “alpha-glucosidase inhibitory kinetic mode” value is reported as “Noncompetitive”. Further, the Ki in assay [1] (Lineweaver-Burk plots, Table 2, read-out: alpha-glucosidase inhibitory Ki) came out at 136 µM. In addition, the IC50 in assay [3] (Table 2, read-out: alpha-glucosidase inhibitory IC50) was determined as 21.4 ± 1.4 µM.

On to `CC1=C2C(O)C3CC(O)C(C)C2(CC1O)C3(C)C` (stereo not drawn) [sugetriol], for which, in assay [2], the “Affinity capture result” value is “absorbed only on the support matrix”.
